From patent US11584709B2, “Multitarget drug for treating diseases in mammals” (“PHARMENTERPRISES EURASIA” LIMITED LIABILITY COMPANY, priority 2017, dated 2023)

Columns and labels:
[1] = Stability in blood plasma, dog; assay type: in vitro ADME; details: 1 μM, 37° C.
Method: (§1) Compound 1 at a concentration of 1 μM was incubated for 24 hours in the blood plasma of human and various animal species (rats, mice, guinea pigs, rabbits, horses, dogs, bull, pygmy hogs) at 37° C. Aliquots were taken at time points of 0, 0.25, 1, 2, 4, 8 and 24 hours. In the case of blood plasma of rabbits and monkeys, Compound 1 was incubated for 4 hours, and aliquots were taken at time points 0, 0.25, 1, 4. After the protein precipitation with acetonitrile, samples were analyzed by HPLC-MS/MS to determine the concentration of Compound 1. Verapamil was used as a stable control.

[2] = test system: motility of the gastrointestinal tract; assay: Model of irritable bowel syndrome: motility of the gastrointestinal tract (activated carbon); assay type: in vivo, nonlinear male mice
Method: The effect on the motility of the gastrointestinal tract was studied on a model of irritable bowel syndrome in nonlinear male mice weighing 24-30 g. The animals were intragastrically injected with a solution of activated carbon (50 mg/ml, in a volume of 10 ml/kg) and the speed (in minutes) of the movement of activated coal through the intestines of animals. The compounds under study were intragastrically administered once 1 hour before the introduction of activated carbon. Drotaverine (6.7 mg/kg), Buscopan (3 mg/kg) and Trimedat (33 mg/kg) were used as reference drugs.

[3] = target: T1, serotonin receptors 5-HT2B (Homo sapiens, UniProt P41595); assay: Activity of serotonin receptors 5-HT2B, CHO cells; assay type: cell-based; details: antagonist, serotonin agonist (30 nM)
T1 construct: expressed in transfected cells; host or cells: CHO cells
Method: (§2) Compound 1 was dissolved in DMSO to a concentration of 100 mM; then a stock solution was serially diluted with DMSO. The maximum starting concentration of the substance is 100 μM. The effect was determined at 5 concentrations of the tested compounds, each concentration was studied twice. CHO cells expressing serotonin receptors 5-HT2B were used in the experiment, these cells, after preincubation with a serotonin agonist (30 nM), were incubated with the test compound. The activity of receptors was determined according to the intracellular calcium concentration of phosphatidylinositol by the homogeneous time resolved fluorescence spectroscopy (Br J Pharmacol. 1999 September; 128(1):13-20).

[4] = target: T2, prokineticin receptor type 1 (PK1) (Homo sapiens, UniProt Q8TCW9); assay: Activity of prokineticin receptors type 1 (PK1), intracellular calcium, HEK-293 cells; assay type: cell-based; details: antagonist, PK1 agonist (3 nM)
T2 construct: expressed in transfected cells; host or cells: HEK-293 cells
Method: Compound 1 was dissolved in DMSO to a concentration of 100 mM; then a stock solution was serially diluted with DMSO. The maximum starting concentration of the substance is 100 μM. The effect was determined at 5 concentrations of the tested compounds, each concentration was studied twice. HEK-293 cells expressing prokineticin receptors PK1 were used in the experiment, these cells, after preincubation with a PK1 agonist (3 nM), were incubated with the test compound. The activity of receptors was determined according to the intracellular calcium concentration by the fluorescence spectroscopy (Mol Pharmacol. 2005 June; 67(6):2070-6).

[5] = test system: imiquimod-induced psoriasis on the back; assay: Mouse model of imiquimod-induced psoriasis on the back; assay type: in vivo; details: for The gain of the thickness of the back skin to the thickness before the start of the study: 0.3% ointment, M ± m, n = 10
Method: Psoriasis was simulated in female balb/c mice by applying Aldar cream (5% imiquimod) on a previously shaved skin back area of 3×4 cm daily 1 time per day for 15 days (J Immunol. 2009 May 1; 182(9):5836-45). Intact animals were applied with vaseline: 120 mg per the shaved back area.
The assessment of the development of pathology was performed on the 10th, 12th, 13th and 15th day before the next application of Aldar cream according to the index: the thickness of the skin fold on the back. The thickness of the skin fold on the back was measured with a Digimatic MK-25 micrometer (Mitutoyo, Japan).

[6] = target: T3, cannabinoid receptor type 1 (CB1R) (Homo sapiens, UniProt P21554); assay: Activity of cannabinoid receptor type 1, CHO cells expressing CB1R; assay type: cell-based; details: agonist, control CP55940 (30 nM)
T3 construct: expressed in transfected cells; host or cells: CHO cells
Method: Compound 1 was dissolved in DMSO to a concentration of 100 mM; then the stock solution was serially diluted with DMSO. The maximum starting concentration of the substance is 100 μM. The effect was determined at 5 concentrations of the tested compounds, each concentration was studied twice. CHO cells expressing CB1R were used in the experiment, these cells were incubated with the test compound. CP55940 (30 nM) compound was used as the control. The activity of receptors was determined by the intracellular calcium concentration by the homogeneous time resolved fluorescence spectroscopy (Mol Pharmacol. 1995 September; 48(3):443-50).

[7] = target: T4, melanocortin receptor MC4R (Homo sapiens, UniProt P32245); assay: Activity of melanocortin receptors MC4R, CHO cells; assay type: cell-based; details: antagonist, NDP-alpha-MSH agonist (30 nM)
T4 construct: expressed in transfected cells; host or cells: CHO cells
Method: as §2, with “a melanocortin receptor MC4R” for “serotonin receptors 5-HT2B”, “NDP-alpha-MSH” for “serotonin”, “concentration” for “concentration of phosphatidylinositol”, “spectroscopy.” for “spectroscopy (Br J Pharmacol. 1999 September; 128(1):13-20).”

[8] = Stability in blood plasma, human; assay type: in vitro ADME; details: 1 μM, 37° C.
Method: as §1

T2 sequence (Q8TCW9 whole entry): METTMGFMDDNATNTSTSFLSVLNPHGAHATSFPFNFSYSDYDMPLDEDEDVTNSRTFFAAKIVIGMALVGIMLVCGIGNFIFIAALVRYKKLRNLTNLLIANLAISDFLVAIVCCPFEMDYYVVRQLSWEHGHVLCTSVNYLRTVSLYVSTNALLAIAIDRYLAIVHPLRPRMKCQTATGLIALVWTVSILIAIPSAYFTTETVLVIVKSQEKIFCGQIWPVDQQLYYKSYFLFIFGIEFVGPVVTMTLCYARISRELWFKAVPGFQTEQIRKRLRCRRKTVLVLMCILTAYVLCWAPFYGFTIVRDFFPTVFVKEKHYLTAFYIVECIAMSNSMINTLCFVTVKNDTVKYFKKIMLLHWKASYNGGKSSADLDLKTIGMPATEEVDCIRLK
T3 sequence (P21554 whole entry): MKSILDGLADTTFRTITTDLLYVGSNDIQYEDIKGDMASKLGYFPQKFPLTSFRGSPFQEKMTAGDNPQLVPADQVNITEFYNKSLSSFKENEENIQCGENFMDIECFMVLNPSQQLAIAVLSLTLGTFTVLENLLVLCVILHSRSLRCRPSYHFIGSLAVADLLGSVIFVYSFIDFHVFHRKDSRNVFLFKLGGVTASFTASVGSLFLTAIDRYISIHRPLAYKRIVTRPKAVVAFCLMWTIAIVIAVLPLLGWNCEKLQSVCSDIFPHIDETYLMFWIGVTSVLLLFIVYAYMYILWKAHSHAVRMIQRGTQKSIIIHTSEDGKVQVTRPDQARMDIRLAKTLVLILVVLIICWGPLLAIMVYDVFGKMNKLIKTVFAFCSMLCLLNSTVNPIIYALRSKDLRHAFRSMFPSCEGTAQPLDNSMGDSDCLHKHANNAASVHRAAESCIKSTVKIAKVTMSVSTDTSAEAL
T4 sequence (P32245 whole entry): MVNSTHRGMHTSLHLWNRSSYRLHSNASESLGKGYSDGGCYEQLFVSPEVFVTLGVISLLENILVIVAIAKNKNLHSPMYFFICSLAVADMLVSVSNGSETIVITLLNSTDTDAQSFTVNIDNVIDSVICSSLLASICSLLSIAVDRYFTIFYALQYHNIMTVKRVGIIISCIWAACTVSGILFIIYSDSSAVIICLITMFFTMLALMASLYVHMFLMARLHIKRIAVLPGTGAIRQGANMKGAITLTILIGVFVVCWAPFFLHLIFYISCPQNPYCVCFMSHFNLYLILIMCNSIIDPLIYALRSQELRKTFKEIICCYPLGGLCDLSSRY
T1 sequence (P41595 whole entry): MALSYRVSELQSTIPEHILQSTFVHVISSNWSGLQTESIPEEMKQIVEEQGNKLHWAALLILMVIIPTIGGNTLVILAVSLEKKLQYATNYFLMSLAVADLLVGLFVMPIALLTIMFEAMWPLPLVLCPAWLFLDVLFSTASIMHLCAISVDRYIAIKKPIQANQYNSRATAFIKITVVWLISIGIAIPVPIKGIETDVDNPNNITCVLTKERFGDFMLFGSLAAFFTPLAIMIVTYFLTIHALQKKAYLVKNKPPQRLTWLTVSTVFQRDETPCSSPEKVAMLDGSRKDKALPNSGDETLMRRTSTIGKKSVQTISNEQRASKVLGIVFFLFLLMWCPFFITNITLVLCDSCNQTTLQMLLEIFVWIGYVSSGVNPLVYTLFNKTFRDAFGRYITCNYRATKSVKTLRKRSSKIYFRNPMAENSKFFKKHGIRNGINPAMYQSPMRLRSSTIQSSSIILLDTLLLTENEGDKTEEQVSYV

O=C(Cc1ccc(O)cc1)N[C@@H](Cc1ccccc1)C(=O)OCc1ccccc1 [Compound 1, benzyl (2S)-2-[2-(4-hydroxyphenyl)acetamido]-3-phenylpropanoate]
Content, % from the initial, Mean (n = 2) ([1]; 0 hour): 100%
Content, % from the initial, Mean (n = 2) ([1]; 0.25 hour): 110%
Content, % from the initial, Mean (n = 2) ([1]; 1 hour): 79.1%
Content, % from the initial, Mean (n = 2) ([1]; 2 hour): 80.6%
Content, % from the initial, Mean (n = 2) ([1]; 4 hour): 67.2%
Content, % from the initial, Mean (n = 2) ([1]; 8 hour): 54.1%
Content, % from the initial, Mean (n = 2) ([1]; 24 hour): 33.8%
The evacuation speed of activated carbon ([2]; 0.5 mg/kg once intragastrically 1 hour before activated carbon): 89.45 ± 1.9 min
The evacuation speed of activated carbon ([2]; 1.5 mg/kg once intragastrically 1 hour before activated carbon): 104.25 ± 5.49 min
The evacuation speed of activated carbon ([2]; 5 mg/kg once intragastrically 1 hour before activated carbon): 107.67 ± 3.07 min
The evacuation speed of activated carbon ([2]; 10 mg/kg once intragastrically 1 hour before activated carbon): 126.6 ± 3.66 min
The evacuation speed of activated carbon ([2]; 15 mg/kg once intragastrically 1 hour before activated carbon): 123.13 ± 5.27 min
The evacuation speed of activated carbon ([2]; 50 mg/kg once intragastrically 1 hour before activated carbon): 129.13 ± 3.19 min
The evacuation speed of activated carbon ([2]; 150 mg/kg once intragastrically 1 hour before activated carbon): 135.63 ± 2.87 min
increase of the evacuation time of activated carbon ([2]; summary of table 7): 2 times
IC50 [3]: 8.9 µM
IC50 [4]: 5.7 µM
The gain of the thickness of the back skin to the thickness before the start of the study ([5]; day 10): 23.1%
The gain of the thickness of the back skin to the thickness before the start of the study ([5]; day 12): 19.9%
The gain of the thickness of the back skin to the thickness before the start of the study ([5]; day 13): 20.5%
The gain of the thickness of the back skin to the thickness before the start of the study ([5]; day 15): 22.4%
reduction of the gain of the thickness of the skin fold of the affected skin area ([5]; summary of table 2): 2 times
IC50 [6]: 3.3 µM
IC50 [7]: 7.6 µM
Content, % from the initial, Mean (n = 2) ([8]; 0 hour): 100%
Content, % from the initial, Mean (n = 2) ([8]; 0.25 hour): 85.4%
Content, % from the initial, Mean (n = 2) ([8]; 1 hour): 70.3%
Content, % from the initial, Mean (n = 2) ([8]; 2 hour): 50.1%
Content, % from the initial, Mean (n = 2) ([8]; 4 hour): 32.1%
Content, % from the initial, Mean (n = 2) ([8]; 8 hour): 16.4%
Content, % from the initial, Mean (n = 2) ([8]; 24 hour): 0.00%
